Measured values taken from PubChem BioAssay (NCI).
“And” between values parts separate entries of the source, which are not always exact repeats. Equal entries are not always repeated.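 Where inhibition never reached the appropriate level, the endpoint shown equals the highest concentration tested. Otherwise, values were interpolated linearly from a five-concentration, 48-hour dose response in 96-well plates. At the GI50, growth is halved. TGI marks complete inhibition of growth.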

Columns and labels:
Test in all cases: inhibition of tumour cell growth, NCI panel, 48 h
M14 melanoma = tested on: M14 melanoma
K-562 leukemia = tested on: K-562 leukemia
SK-MEL-5 melanoma = tested on: SK-MEL-5 melanoma
HT29 colon = tested on: HT29 colon
UACC-62 melanoma = tested on: UACC-62 melanoma
SF-295 CNS = tested on: SF-295 CNS
CCRF-CEM leukemia = tested on: CCRF-CEM leukemia
A549 NSCLC = tested on: A549 NSCLC
OVCAR-4 ovarian = tested on: OVCAR-4 ovarian
BT-549 breast = tested on: BT-549 breast

Compound | GI50 (M14 melanoma) | TGI (M14 melanoma) | GI50 (K-562 leukemia) | TGI (K-562 leukemia) | GI50 (SK-MEL-5 melanoma) [µM] | TGI (SK-MEL-5 melanoma) [µM] | GI50 (HT29 colon) | TGI (HT29 colon) | GI50 (UACC-62 melanoma) | TGI (UACC-62 melanoma) | GI50 (SF-295 CNS) | TGI (SF-295 CNS) | GI50 (CCRF-CEM leukemia) | TGI (CCRF-CEM leukemia) | GI50 (A549 NSCLC) | TGI (A549 NSCLC) | GI50 (OVCAR-4 ovarian) | TGI (OVCAR-4 ovarian) | GI50 (BT-549 breast) | TGI (BT-549 breast)
NC(=O)c1cccc2c(N[C@H](CN3CCC3)c3ccc(Cl)c(C(F)(F)F)c3)ncnc12 | 1.47 µM | 3.69 µM | 2.53 µM | 10.8 µM | 1.7 | 3.27 | 0.981 µM | 12.1 µM | 1.13 µM | 8.62 µM | 0.293 µM | 2.88 µM | 0.871 µM | 12 µM | 1.47 µM | 12.4 µM | 3.26 µM | 16.6 µM | 0.657 µM | 3.61 µM
N#Cc1c(NCc2ccccc2)nc(NCc2ccccc2)c(C#N)c1-c1ccc(Cl)cc1 | > 50 µM and 53.5 µM | > 100 µM | > 50 µM | > 50 µM | > 100 | > 100 | > 100 µM | > 100 µM | > 50 µM and 37.8 µM | > 100 µM | > 50 µM and 36 µM | > 100 µM | > 50 µM and 22.5 µM | > 50 µM and 49.5 µM | > 50 µM and 51.5 µM | > 100 µM | > 50 µM and 23.9 µM | > 100 µM | 63.6 µM | > 100 µM
Cc1ccc(F)c(NC(=O)Nc2ccc(-c3cccc4[nH]nc(N)c34)cc2)c1 | 3.63 µM and 3.58 µM | 15.5 µM and > 10 µM | 3.66 µM and 2.28 µM | > 57.5 µM and 9.29 µM | 2.88 | 8.56 | 2.46 µM and 2.86 µM | 6.93 µM and > 10 µM | 3.27 µM and 4.2 µM | 11.7 µM and > 10 µM | 2.55 µM and 3.48 µM | 12.3 µM and > 10 µM | 2.9 µM and 3.4 µM | 9.29 µM and > 10 µM | 2.31 µM and 2.12 µM | 5.97 µM and 4.95 µM | 3.1 µM and 3.8 µM | 17.1 µM and > 10 µM | 2.64 µM and 3.39 µM | 9.82 µM and > 10 µM
CC1CCCC(C(=O)CC2CC(=O)NC(=O)C2)C1=O (configuration not stated) |  | > 100 µM |  | > 100 µM |  | > 100 |  | > 100 µM |  | > 100 µM |  | > 100 µM |  | > 100 µM |  | > 100 µM |  | > 100 µM |  | > 100 µM
O=C(c1ccccc1)C(Cl)C(Cl)c1ccccc1 (configuration not stated) | 2.12 µM | 4.79 µM | 2.6 µM | 10.3 µM | 2.93 | 10.7 | 2.05 µM | 4.12 µM | 1.69 µM | 3.69 µM | 12.9 µM | 26 µM | 1.67 µM | 6.93 µM | 18.3 µM | 34.2 µM | 3.45 µM | 14.4 µM | 2.55 µM | 6.12 µM
COC(=O)C12CCC(C)(C)CC1C1=CCC3C4(C)CC(O)C(O)C(C)(C(=O)OC)C4CCC3(C)C1(CO)CC2 (configuration not stated) |  | 19.5 µM |  | > 100 µM |  | 41.3 |  | 30.1 µM |  | 28.9 µM |  | 28.8 µM |  | 80.2 µM |  | 29 µM |  | 27.8 µM |  | 28.8 µM
COc1ccc(/C=C/C(=O)c2c(O)ccc3c(C)c(C(=O)O)oc23)cc1 | > 100 µM | > 100 µM | 36.2 µM | > 100 µM | 46.4 | > 100 | > 100 µM | > 100 µM | 55 µM | > 100 µM | 35.1 µM | > 100 µM | 40.3 µM | > 100 µM | 91.9 µM | > 100 µM | > 100 µM | > 100 µM | 73.7 µM | > 100 µM
O=C(Cn1c(C(=O)c2ccc(Cl)cc2)nc(-c2ccc(Cl)cc2)c1-c1ccc(Cl)cc1)c1ccccc1 | > 100 µM | > 100 µM | > 100 µM | > 100 µM | > 100 | > 100 | > 100 µM | > 100 µM | > 100 µM | > 100 µM | > 100 µM | > 100 µM | > 100 µM | > 100 µM | > 100 µM | > 100 µM | > 100 µM | > 100 µM | > 100 µM | > 100 µM
C/C(CCC(=O)O)=N/Nc1ccc([N+](=O)[O-])cc1 | 1.53 µM | > 100 µM | 0.563 µM | > 100 µM | 10.1 | > 100 | > 100 µM | > 100 µM | 0.492 µM | 62.3 µM | 2.36 µM | > 100 µM | 0.696 µM | > 100 µM | 4.41 µM | > 100 µM | > 100 µM | > 100 µM | 42.3 µM | > 100 µM
CC1CCC2C(C)C(=O)OC3OC4(C)CCC1C32OO4 (configuration not stated) |  | > 100 µM |  | > 100 µM |  | > 100 | > 100 µM | > 100 µM | > 100 µM | > 100 µM |  | > 100 µM |  | > 100 µM |  | > 100 µM |  | > 100 µM |  | > 100 µM
C[C@@H](N)COc1ccc(-c2cnc3ccc(N[C@H](C)c4cccc(F)c4)nn23)cc1 | 1.49 µM | 3 µM | 1.95 µM | 6.96 µM | 1.63 | 3.03 | 1.4 µM | 3.82 µM | 1.97 µM | 4.74 µM | 1.8 µM | 4.01 µM | 2.68 µM | 7.88 µM | 1.53 µM | 3.82 µM | 2.49 µM | 11.9 µM | 1.68 µM | 3.33 µM
CCn1c(-c2nonc2N)nc2c(C#CC(C)(C)O)ncc(OC3CCNCC3)c21 | 21.6 µM | > 25 µM | 11.1 µM | > 25 µM | > 20.1 | > 25 | 8.93 µM | > 25 µM | 15.8 µM | > 25 µM | 9.09 µM | > 25 µM | 5.18 µM | > 25 µM | > 25 µM | > 25 µM | 14.1 µM | > 25 µM | 8.78 µM | > 25 µM
CN1CCN(C(=O)[C@@]2(C)CC[C@]3(C)CC[C@]4(C)C(=CC[C@@H]5[C@@]6(C)CCC(=O)NC(C)(C)[C@@H]6CC[C@]54C)[C@@H]3C2)CC1 | 1.69 µM | 3.38 µM | 1.07 µM | 3.02 µM | 1.64 | 3.06 | 1.5 µM | 3.35 µM | 1.55 µM | 3.03 µM | 1.53 µM | 3.07 µM | 1.58 µM | 4.43 µM | 2.02 µM | 5.28 µM | 2.94 µM | 13 µM | 1.58 µM | 3.28 µM
